# Results: the supplement of paper PMC10307832
# Assays:
# Experiment in all cases: relative viability (nuclei count vs DMSO), 5 days (fraction); higher = more cells survive
# QS11 + Bortezomib = compound: C1CC2=C(C1)C=C(C=C2)OC3=NC(=C4C(=N3)N(C=N4)CC5=CC=C(C=C5)C6=CC=CC=C6)N[C@@H](CC7=CC=CC=C7)CO [QS11] + CC(C)C[C@H](NC(=O)[C@H](Cc1ccccc1)NC(=O)c1cnccn1)B(O)O [Bortezomib] (partner 0.002 µM)
# How it was run: (§1)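 A single step with final 0.05% Triton X-100, 1% formaldehyde and 1 ug/ml Hoechst fixed the cells and stained nuclei 5 days after treatment. Lung cancer cell lines in 1536-well plates had been treated by pin tool the day after seeding with one drug alone or a fixed anchor-drug dose plus five library-drug doses (not always all listed) in √10 steps, and nuclei were counted on 4× images. Relative viability is the ratio of nuclei in treated wells to nuclei in vehicle wells, taken as the median of duplicate plates.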
# AZ628 + OSI-027 = compound: CC1=C(C=C(C=C1)NC(=O)C2=CC(=CC=C2)C(C)(C)C#N)NC3=CC4=C(C=C3)N=CN(C4=O)C [AZ628] + COc1cccc2cc(-c3nc([C@H]4CC[C@H](C(=O)O)CC4)n4ncnc(N)c34)[nH]c12 [OSI-027] (partner 0.5 µM)
# How it was run: as §1
# [1] = compound: C[As](C)SC[C@H](NC(=O)CC[C@H](N)C(=O)O)C(=O)NCC(=O)O [Darinaparsin] + Nc1ncn([C@H]2C[C@H](O)[C@@H](CO)O2)c(=O)n1 [Decitabine] (partner 2 µM)
# How it was run: as §1
# [2] = compound: C[As](C)SC[C@H](NC(=O)CC[C@H](N)C(=O)O)C(=O)NCC(=O)O [Darinaparsin] + CC(=O)c1c(C)c2cnc(Nc3ccc(N4CCNCC4)cn3)nc2n(C2CCCC2)c1=O [Palbociclib] (partner 0.5 µM)
# How it was run: as §1
cell line,measurement,setting,value
LCLC-97TM1,relative viability,QS11 + Bortezomib; first compound 0.253 µM,0.971
same,relative viability,QS11 + Bortezomib; first compound 0.8 µM,0.611
same,relative viability,QS11 + Bortezomib; first compound 2.53 µM,0.537
same,relative viability,QS11 + Bortezomib; first compound 8 µM,1.18
same,relative viability,AZ628 + OSI-027; first compound 0.08 µM,0.577
same,relative viability,AZ628 + OSI-027; first compound 0.253 µM,0.328
same,relative viability,AZ628 + OSI-027; first compound 0.8 µM,0.315
same,relative viability,AZ628 + OSI-027; first compound 2.53 µM,0.327
same,relative viability,AZ628 + OSI-027; first compound 8 µM,0.198
same,relative viability,[1]; first compound 0.08 µM,0.246
same,relative viability,[1]; first compound 0.8 µM,0.252
same,relative viability,[1]; first compound 2.53 µM,0.211
same,relative viability,[1]; first compound 8 µM,0.258
same,relative viability,[2]; first compound 0.08 µM,0.317
same,relative viability,[2]; first compound 0.8 µM,0.2
same,relative viability,[2]; first compound 2.53 µM,0.237
same,relative viability,[2]; first compound 8 µM,0.251
